Laboratory results: patent publication US20070265274A1, “4-(4-METHYLPIPERAZIN-1-YLMETHYL)-N-[4-METHYL-3-(4-PYRIDIN-3-YL)PYRIMIDIN-2-YLAMINO)PHENYL]-BENZAMIDE FOR TREATING MUTATED-RET KINASE ASSOCIATED DISEASES” (priority 2002, published 2007)
Read-outs that look alike come from different tables or passages of the source.

Columns and labels:
[1] = tested on: PLCγ phosphorylation by RET/PTC; details: 250 nM SALT I for 24 h; in comparison with samples without SALT I
Description: To further explore the effect of SALT I on RET kinase activity, pretreatment with SALT I on PLCγ phosphorylation is examined.
Ret-PTC3 cells are seeded at 10^5 cells/well in 6-well Corning plates. After 3 days, cells are treated with or without doxycycline in the presence of 250 nM of SALT I for 24 h. Cells are rinsed twice with cold (phosphate buffered saline) PBS containing 0.1 mM sodium orthovanadate, and left for 20 minutes in ice-cold RIPA buffer shaking gently at 4° C. Cell lysates are collected by centrifugation at 10,600 g for 20 min at 4° C. Protein assays are performed on aliquots of supernatants by the Coomassie Blue assay (Pierce, Rockford, Ill.). Western blot analysis are performed by running 100 μg of protein on SDS PAGE (5%), transfer to nitrocellulose membrane and probing initially with anti-phospho PLCγ antibody (Cell Signaling) and then with anti-PLCγ (Cell Signaling) for normalization.

RET/PTC3 = details: 100 nM SALT I; 25 min at room temperature; γP32-ATP
Description: Cell Line: PCCL3, a rat thyroid cell line, is maintained in H4 complete medium consisting of Coon's medium/F12 high zinc supplemented with 5% FBS, 0.3 mg/ml L-glutamine, 1 mU/ml TSH, 10 μg/ml insulin, 5 μg/ml apo-transferrin, 10 nM hydrocortisone, and penicillin/streptomycin. […] Stable transfections are performed first to establish clonal lines constitutively expressing the transactivator rtTA (composed of a fusion of the rtetR DNA binding domain and the VP16 activation domain). Individual rtTA-expressing clones are then explored for doxycyclin-inducible expression by transient transfection with a luciferase reporter construct under control of a tet-operator.
Confluent T-75 flasks of RET/PTC3 (PCCL3) cells incubated with or without doxycycline for 24 hours are washed with ice cold PBS containing 0.2 mM sodium ortho-vanadate. […] After the second wash, the reactions are boiled in 35 μl Laemmli buffer for 10 min, the proteins are subjected to SDS-PAGE (7.5%) and their phosphorylation measured by PhosphoImager densitrometry (Molecular Dynamics, Sunnyvale, Calif.) after transfer to nitrocellulose membranes. Protein loading is then normalized to total RET kinase protein determined by Western blot analysis using either the goat polyclonal anti-RET kinase antibody (Santa Cruz) or a mouse monoclonal (University of Cincinnati).

[2] = tested on: NIH3T3 cells expressing constitutively active RET MEN2A (RETC634 mutation); details: for % of cell decrease: SALT I 500 nM, 9 days
Description: The RETC634 mutation is the most common germline mutation of the RET kinase occurring in 85% of multiple endocrine neoplasias type 2A. The effect of SALT I on growth of NIH3T3 cells stably expressing a constitutively active form of the RET kinase (RETC634 mutation) is investigated.
NIH3T3 cells expressing constitutively active RET MEN2A are allowed to plate overnight in 6-well plates. They are then grown in the presence of 1 or 5% serum with SALT I 500 nM or with a vehicle solvent (control) for 9 days, with media changes every 3 days. Cells are counted after harvesting with EDTA/trypsin solution on day 9 after initiation of treatments.

For `CS(=O)(=O)O.Cc1ccc(NC(=O)c2ccc(CN3CCN(C)CC3)cc2)cc1Nc1nccc(-c2cccnc2)n1` [SALT I], the “inhibition of phosphorylation of PLCγ” value [1] was 28%, the “inhibition of autophosphorylation of RET/PTC3” value (RET/PTC3) was 40% and the “% of cell decrease” value ([2]; 1% serum) was 42%. The “% of cell decrease” value ([2]; 5% serum) was 15% and the “growth of RET kinase-transformed NIH3T3 fibroblasts” value ([2]; result in words) was “inhibits the growth”.
